{"source": "patent US12350308B2", "about": "“Phosphorylcholine conjugates and uses thereof” (TPCERA LTD., priority 2013, dated 2025)", "assay_type_in_all_cases": "in vivo", "key": {"[1]": {"tested_on": "splenocytes of lupus mice", "test": "Secreted cytokine protein of splenocytes of lupus mice treated with PC-tuftsin (DuoSet)", "settings": "splenocytes incubated 72 hours", "experimental": "(§1) Mice, from age of 14 weeks, received subcutaneously PC-tuftsin at the concentration of 50 μg/0.1 ml per mouse (treatment; n=10) or PBS (control; n=10), three times a week. In the cytokines studies, the relative mRNA expression levels of pro-inflammatory cytokine IFNγ and anti-inflammatory cytokine TGFβ were analyzed by real time RT-PCR using LightCycler (Roche). Total RNA was isolated from splenocytes and was reverse-transcribed into cDNA by using Moloney Murine Leukemia Virus Reverse Transcriptase (Promega). The resulting cDNA was subjected to real-time RT-PCR in the presence of specific primers, according to the manufacturer's instructions (Table 2). The relative expression levels of IFNγ and TGFβ were normalized to β-actin levels.\nSplenocytes protein level of anti-inflammatory cytokines TGFβ, and IL-10 and pro-inflammatory cytokines IFNγ, and IL-17 were quantified by DuoSet (R&D Systems), according to the manufacturer's instructions. Briefly, spleens from mice treated with PC-tuftsin or PBS were harvested, splenocytes were isolated (5×10^6/ml) and incubated for 72 hours and thereafter assessed for contents of secreted cytokines."}, "Tregs CD4+CD25+FOXP3+": {"tested_on": "Tregs CD4+CD25+FOXP3+", "test": "T regulatory cell profiling by FACS in splenocytes of lupus mice (PC-tuftsin study)", "settings": "PBS 4±0.6 percent", "experimental": "as §1\nFinally, a T regulatory cell (Tregs) profiling assay was performed in isolated splenocytes incubated with the following antibodies: anti-CD4^+FITC, anti-CD25^+APC and anti-FOXP3^+PE (eBioscience) and analyzed by FACS. Forward and side scatter gates adjusted to include all cells and to exclude debris (Becton Dickinson). Cells were gated on CD4+ cells, and for intracellular staining, the cells were incubated with a fixation solution, washed and resuspended in permeabilization solution (Serotec). Isotype control was used as reference."}, "NZBXW/F1 mice [2]": {"tested_on": "NZBXW/F1 mice", "test": "Kidney morphology in lupus mice treated with PC-tuftsin (PAS, immunofluorescence)", "settings": "50 μg/0.1 ml s.c. 3 times a week", "experimental": "The effect of PC-tuftsin on the morphology of kidneys was determined in a lupus mouse model as in Examples 2. Kidney section obtained from kidneys of mice sacrificed after treatments were paraffin embedded. PAS staining was used to detect pathology of nephritis. Immunofluorescence staining was used for detecting immune complex deposits. The latter was implemented by incubating the paraffin embedded sections with FITC-conjugated-anti-mouse-IgG. Evaluation was performed by a pathologist.\nMice, from age of 14 weeks, received subcutaneously PC-tuftsin at the concentration of 50 μg/0.1 ml per mouse (treatment; n=10) or PBS (control; n=10), three times a week."}, "NZBXW/F1 mice [3]": {"tested_on": "NZBXW/F1 mice", "test": "Proteinuria in lupus mice treated with PC-tuftsin (Multistix)", "settings": "50 μg/0.1 ml s.c. 3 times a week from 14 weeks; vs PBS", "experimental": "The effect of PC-tuftsin (TPC) on proteinuria was determined in a mouse model for lupus, specifically, female NZBXW/F1 mice that develop lupus on a genetic background. Proteinuria levels were measured using Multistix (Bayer Diagnostics). This type of measurement is typically used in the clinic for assessing manifestation of lupus nephritis. Lupus nephritis is an inflammation of the kidney caused by systemic lupus erythematosus (SLE).\nThe mice, from age of 14 weeks, received subcutaneously PC-tuftsin at the concentration of 50 μg/0.1 ml per mouse (treatment; n=10) or PBS (control; n=10), three times a week. Proteinuria was defined as having a protein level of above 100 mg/dl in the urine."}, "[4]": {"tested_on": "splenocytes of lupus mice", "test": "Cytokine mRNA in splenocytes of lupus mice treated with PC-tuftsin (real time RT-PCR)", "settings": "normalized to β-actin; vs PBS", "experimental": "as §1"}, "male C57BL/6 mice": {"tested_on": "male C57BL/6 mice", "test": "DSS induced acute colitis in mice", "settings": "even after day 12", "experimental": "The effect of PC-tuftsin derivative (SEQ ID NO: 25) on colitis development was determined in a mouse model subjected to induction of acute colitis by dextran sulfate sodium (DSS) treatment. Specifically, induction of colitis was carried out in male C57BL/6 mice (“colitis mice”) by supplementing the drinking water (2.5% wt/v) for five days with DSS (mol. wt. 36,000-50,000).\nTwo groups of mice were fed daily via oral ingestion using a feeding-needle, with PC-tuftsin derivative at a concentration of 500 μg/0.1 ml per mouse (treatment; n=10), or PBS (control; n=10). These compounds were given during 11 days starting two days before DSS administration.\nAssessment of colitis development was performed by monitoring body weight, rectal bleeding, stool consistency, and survival every second day. Intestinal bleeding was followed by Hemoccult test and observation of bleeding signs on the anus or gross bleeding. The daily disease activity index (DAI) was calculated by grading on a scale of zero to four the following parameters: change in weight (0, <1%; 1, 1-5%; 2, 5-10%; 3, 10— 15%; and 4, >15%), intestinal bleeding (0, negative; 4, positive), and stool consistency (0, normal; 2, loose stools; 4, diarrhea). The combined scores were then divided by three to obtain the final disease activity index. Ten days following disease induction, mice were sacrificed and the large intestine was collected and evaluated for colon length and microscopic colonic damage. For microscopic scoring, the proximal, medial, and distal portions of the colon and the cecum were fixed in 10% phosphate-buffered formalin. Paraffin-embedded sections were stained with H&E. The degree of histological damage and inflammation was graded in a blinded fashion by an expert pathologist"}}, "note": "Where no end group is shown, it is not given here."}
{"substance": "PC-tuftsin: PC conjugated to tuftsin (threonine-lysine-proline-arginine, TKPR; SEQ ID NO: 17) using 4-aminophenylphosphorylcholine (also: phosphorylcholine conjugated via 4-aminophenylphosphorylcholine, site not given here)", "values": [{"measurement": "increase in protein level of IL-10", "setting": "[1]; vs PBS", "result": 4.8}, {"measurement": "increase in protein level of TGFβ", "setting": "[1]; vs PBS", "result": 5.1}, {"measurement": "reduction of IFNγ concentration", "setting": "[1]; vs control", "result": 5.2, "unit": "fold"}, {"measurement": "reduction of IL-17 concentration", "setting": "[1]; vs control", "result": 2.7, "unit": "fold"}, {"measurement": "enhancement in Tregs CD4+CD25+FOXP3+ expression level", "setting": "Tregs CD4+CD25+FOXP3+", "result": "18±2", "unit": "%"}, {"measurement": "pathology of nephritis (PAS staining)", "setting": "NZBXW/F1 mice [2]", "result": "did not display any pathology of nephritis"}, {"measurement": "immune complex deposits in the glomeruli", "setting": "NZBXW/F1 mice [2]; vs PBS", "result": "very mild immune complex deposits"}, {"measurement": "proteinuria (protein level above 100 mg/dl)", "setting": "NZBXW/F1 mice [3]", "result": "significant attenuation"}, {"measurement": "relative mRNA expression of IFNγ in splenocytes", "setting": "[4]", "result": "significantly reduced"}, {"measurement": "relative mRNA expression of TGFβ in splenocytes", "setting": "[4]", "result": "significantly enhanced"}, {"measurement": "mice still alive", "setting": "male C57BL/6 mice", "result": 100, "unit": "%"}]}
